pKi: −log10 of the molar value. Where two headings read alike, the source gives them in different places.
Tests used:
Type in all cases: binding
α2β4 nAChR subtype = biological target: T1, α2β4 nAChR subtype (Rattus norvegicus, UniProt P12389+P12392); assay: biochemical
T1 construct: expressed in transfected cells
Excerpt: (§1) In order to assess the steric and hydropathic effects of the C-5 substituents of the pyridine on the binding affinity and subtype-selectivity at neuronal nicotinic acetylcholine receptors. […] The binding affinity ratios for a ligand, calculated from its affinities at an α subunit paired with either the β2 osubunit or the β4 subunit, represents a measure of the selectivity of that ligand with regard to the β subunits.

α4β2 nAChR subtype = biological target: T2, α4β2 nAChR subtype (Rattus norvegicus, UniProt P09483+P12390); assay: biochemical; conditions: for more selective for α4β2 over α3β4 than the corresponding parent compounds 7, 8, and 2: text b210
T2 construct: expressed in transfected cells
T2 sequence (P12390 25-500): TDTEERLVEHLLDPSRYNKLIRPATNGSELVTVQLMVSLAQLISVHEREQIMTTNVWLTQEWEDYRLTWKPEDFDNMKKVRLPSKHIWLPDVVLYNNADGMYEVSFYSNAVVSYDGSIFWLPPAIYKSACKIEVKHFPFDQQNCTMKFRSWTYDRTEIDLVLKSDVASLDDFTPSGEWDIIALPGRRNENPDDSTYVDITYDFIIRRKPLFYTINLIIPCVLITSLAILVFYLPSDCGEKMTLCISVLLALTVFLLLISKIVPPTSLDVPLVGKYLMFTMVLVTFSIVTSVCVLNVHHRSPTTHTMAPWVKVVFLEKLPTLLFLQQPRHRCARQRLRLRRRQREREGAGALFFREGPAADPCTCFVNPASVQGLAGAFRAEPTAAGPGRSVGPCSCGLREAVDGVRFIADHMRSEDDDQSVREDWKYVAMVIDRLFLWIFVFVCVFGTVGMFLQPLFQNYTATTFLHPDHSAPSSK
T2 sequence (P09483 31-630): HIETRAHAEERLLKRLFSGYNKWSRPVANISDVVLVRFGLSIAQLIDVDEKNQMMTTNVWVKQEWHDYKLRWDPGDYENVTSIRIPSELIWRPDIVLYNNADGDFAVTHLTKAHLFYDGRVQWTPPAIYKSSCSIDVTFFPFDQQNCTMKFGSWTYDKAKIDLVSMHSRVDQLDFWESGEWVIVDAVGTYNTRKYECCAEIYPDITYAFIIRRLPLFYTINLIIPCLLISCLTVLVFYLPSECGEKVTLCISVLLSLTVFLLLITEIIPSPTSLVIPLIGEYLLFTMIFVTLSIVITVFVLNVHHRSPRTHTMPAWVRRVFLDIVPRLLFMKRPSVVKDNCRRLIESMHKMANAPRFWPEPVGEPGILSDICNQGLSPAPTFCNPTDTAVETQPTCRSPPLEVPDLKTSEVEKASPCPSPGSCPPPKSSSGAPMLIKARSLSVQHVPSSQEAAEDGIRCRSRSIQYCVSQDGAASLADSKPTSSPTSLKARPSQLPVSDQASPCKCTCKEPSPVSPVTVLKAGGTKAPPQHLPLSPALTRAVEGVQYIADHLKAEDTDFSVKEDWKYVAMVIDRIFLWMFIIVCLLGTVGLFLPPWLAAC
Excerpt: as §1

α4β4 nAChR subtype = biological target: T3, α4β4 nAChR subtype (Rattus norvegicus, UniProt P09483+P12392); assay: biochemical
T3 construct: expressed in transfected cells
T3 sequence (P12392 21-495): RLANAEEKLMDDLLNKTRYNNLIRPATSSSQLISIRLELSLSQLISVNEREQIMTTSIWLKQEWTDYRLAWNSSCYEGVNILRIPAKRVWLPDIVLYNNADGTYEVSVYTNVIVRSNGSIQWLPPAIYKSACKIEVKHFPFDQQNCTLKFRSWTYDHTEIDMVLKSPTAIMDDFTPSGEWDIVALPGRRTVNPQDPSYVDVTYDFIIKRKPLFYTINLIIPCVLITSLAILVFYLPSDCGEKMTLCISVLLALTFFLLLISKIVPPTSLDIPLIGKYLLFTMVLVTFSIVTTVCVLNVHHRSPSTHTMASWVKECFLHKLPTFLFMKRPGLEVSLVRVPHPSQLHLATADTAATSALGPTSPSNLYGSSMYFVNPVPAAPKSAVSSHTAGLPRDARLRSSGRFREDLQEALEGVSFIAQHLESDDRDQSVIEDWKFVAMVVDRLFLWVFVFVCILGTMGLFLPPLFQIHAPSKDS
T3 sequence (P09483 31-630): as the sequence (P09483 31-630) above
Excerpt: as §1

α2β2 nAChR subtype = biological target: T4, α2β2 nAChR subtype (Rattus norvegicus, UniProt P12389+P12390); assay: biochemical
T4 construct: expressed in transfected cells
T4 sequence (P12390 25-500): as the sequence (P12390 25-500) above
T4 sequence (P12389 28-511): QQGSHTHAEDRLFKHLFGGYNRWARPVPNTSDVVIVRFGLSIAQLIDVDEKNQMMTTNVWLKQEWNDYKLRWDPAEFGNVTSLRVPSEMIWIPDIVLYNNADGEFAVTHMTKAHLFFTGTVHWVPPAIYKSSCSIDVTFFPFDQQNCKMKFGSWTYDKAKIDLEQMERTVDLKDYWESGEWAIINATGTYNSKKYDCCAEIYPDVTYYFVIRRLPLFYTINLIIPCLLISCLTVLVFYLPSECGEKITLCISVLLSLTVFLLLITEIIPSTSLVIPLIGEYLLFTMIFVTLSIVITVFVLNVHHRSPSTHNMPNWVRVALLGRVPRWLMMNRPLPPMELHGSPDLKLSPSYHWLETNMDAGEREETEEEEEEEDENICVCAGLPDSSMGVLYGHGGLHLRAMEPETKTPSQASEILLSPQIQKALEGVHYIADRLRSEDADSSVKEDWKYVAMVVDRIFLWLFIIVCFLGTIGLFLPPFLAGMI
Excerpt: as §1

α3β4 nAChR subtype = biological target: T5, α3β4 nAChR subtype (Rattus norvegicus, UniProt P04757+P12392); assay: biochemical
T5 construct: expressed in transfected cells
T5 sequence (P04757 26-499): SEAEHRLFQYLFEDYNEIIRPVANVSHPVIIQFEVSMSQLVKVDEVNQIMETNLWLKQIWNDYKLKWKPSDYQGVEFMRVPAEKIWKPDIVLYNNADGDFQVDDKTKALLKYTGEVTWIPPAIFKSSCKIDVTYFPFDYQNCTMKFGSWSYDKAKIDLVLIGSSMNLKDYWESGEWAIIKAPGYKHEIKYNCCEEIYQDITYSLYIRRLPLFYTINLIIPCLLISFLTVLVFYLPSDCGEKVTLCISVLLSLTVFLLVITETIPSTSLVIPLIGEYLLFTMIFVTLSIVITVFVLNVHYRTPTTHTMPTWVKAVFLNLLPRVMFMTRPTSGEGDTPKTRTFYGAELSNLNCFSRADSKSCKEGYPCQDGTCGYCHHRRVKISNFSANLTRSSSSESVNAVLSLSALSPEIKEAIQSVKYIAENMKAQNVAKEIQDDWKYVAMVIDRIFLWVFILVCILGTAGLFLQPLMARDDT
T5 sequence (P12392 21-495): as the sequence (P12392 21-495) above
Excerpt: as §1

α3β2 nAChR subtype = biological target: T6, α3β2 nAChR subtype (Rattus norvegicus, UniProt P04757+P12390); assay: biochemical
T6 construct: expressed in transfected cells
T6 sequence (P12390 25-500): as the sequence (P12390 25-500) above
T6 sequence (P04757 26-499): as the sequence (P04757 26-499) above
Excerpt: as §1

[1] = biological target: T7, receptors in rat forebrain (mainly α4β2) (Rattus norvegicus, UniProt P09483+P12390); conditions: Table 6, [3H]-EB 0.099 nM, 0.091 nM, n = 1
T7 construct: from tissue; host or cells: rat forebrain homogenate
T7 sequence (P09483 31-630): as the sequence (P09483 31-630) above
T7 sequence (P12390 25-500): as the sequence (P12390 25-500) above

[2] = biological target: T7, receptors in rat forebrain (mainly α4β2); assay: biochemical
Excerpt: as §1
(§2) In Vitro Inhibition of ^3H-Epibatidin Binding
(§3) The high affinity binding site for ^3H-epibatidin is most certainly binding to the α4β2 subtype of nicotinic receptors. The identity of the low affinity site is still believed to be unknown.
(§4) Tissue preparation: Preparations may be performed at 0-4° C. unless otherwise indicated. […] The tissue suspension may then be centrifuged at 27,000×g for 10 min. The supernatant is then discarded and the pellet may then be washed three times by centrifugation at 27,000×g for 10 min in 20 mL fresh buffer, and the final pellet may be resuspended in fresh buffer (400 mL per g of original tissue) and used for binding assays.
(§5) Assay: Aliquots of 2.0 mL homogenate may be added to 0.100 mL of test solution and 0.100 mL of ^3H-epibatidin (0.3 nM, final concentration), mixed and incubated for 60 min at room temperature. […] The amount of radioactivity on the filters may be determined by conventional liquid scintillation counting. Specific binding is total binding minus non-specific binding.

[3] = test system: receptors in rat forebrain (mainly α4β2); assay: biochemical; conditions: Table 3; ratio of the corresponding Ki values
Excerpt: as §1, §2, §3, §4, §5

[4] = Table 5, rat nAChR subtypes, read-out: Ki α2β4
[5] = Table 6, [3H]-EB 0.099 nM, 0.091 nM, ligand 0.00197-100 μM, n = 1, read-out: Ki α2β4
[6] = Table 5, rat nAChR subtypes, read-out: Ki α4β2
[7] = Table 6, [3H]-EB 0.099 nM, 0.091 nM, ligand 0.00197-100 μM, n = 1, read-out: Ki α4β2
[8] = Table 5, rat nAChR subtypes, read-out: Ki α4β4
[9] = Table 6, [3H]-EB 0.099 nM, 0.091 nM, ligand 0.00197-100 μM, n = 1, read-out: Ki α4β4
[10] = Table 5, rat nAChR subtypes, read-out: Ki α2β2
[11] = Table 6, [3H]-EB 0.099 nM, 0.091 nM, ligand 0.00197-100 μM, n = 1, read-out: Ki α2β2
[12] = Table 5, rat nAChR subtypes, read-out: Ki α3β4
[13] = Table 6, [3H]-EB 0.099 nM, 0.091 nM, ligand 0.00197-100 μM, n = 1, read-out: Ki α3β4
[14] = Table 5, rat nAChR subtypes, read-out: Ki α3β2
[15] = Table 6, [3H]-EB 0.099 nM, 0.091 nM, ligand 0.00197-100 μM, n = 1, read-out: Ki α3β2
[16] = Table 5, *Rat forebrain, mainly α4β2, read-out: Ki α4β2*

T1 sequence (P12389 28-511): as the sequence (P12389 28-511) above
T1 sequence (P12392 21-495): as the sequence (P12392 21-495) above

| Compound | pKi (α2β4 nAChR subtype; [4]) | pKi (α2β4 nAChR subtype; [5]) | pKi (α4β2 nAChR subtype; [6]) | pKi (α4β2 nAChR subtype; [7]) | pKi (α4β4 nAChR subtype; [8]) | pKi (α4β4 nAChR subtype; [9]) | pKi (α2β2 nAChR subtype; [10]) | pKi (α2β2 nAChR subtype; [11]) | pKi (α3β4 nAChR subtype; [12]) | pKi (α3β4 nAChR subtype; [13]) | pKi (α3β2 nAChR subtype; [14]) | pKi (α3β2 nAChR subtype; [15]) | pKi [1] | pKi [2, 16] | Affinity ratio (α3β4/Forbrain) [3] | other results |
| --- | --- | --- | --- | --- | --- | --- | --- | --- | --- | --- | --- | --- | --- | --- | --- | --- |
| CN1CCC[C@H]1COc1cncc(C#CCO)c1 [Ligand 14, 5-(3-Hydroxy-1-propargyl)-3-(1-methyl-2(S)-pyrrolidinylmethoxy)pyridine] | 5.73 | 5.73 | 9.02 | 9.02 | 5.77 | 5.77 | 8.61 | 8.61 | 4.74 | 4.74 | 8.12 | 8.12 | 8.50 | 8.50 |  |  |
| CN1CCC[C@H]1COc1cncc(C#CC(C)(C)O)c1 [Ligand 15, 5-(3-Hydroxy-3-methyl-1-butynyl)-3-(1-methyl-2(S)pyrrolidinylmethoxy)pyridine] | 5.23 | 5.23 | 8.87 | 8.87 | 5.30 | 5.30 | 8.71 | 8.71 | 4.49 | 4.49 | 7.71 | 7.71 | 8.08 | 8.08 |  |  |
| CN1CCC[C@H]1COc1cncc(C#CCCCCO)c1 [Ligand 16, 5-(6-Hydroxy-1-hexynyl)-3-(1-methyl-2(S) -pyrrolidinylmethoxy)pyridine] | 5.49 | 5.49 | 9.09 | 9.09 | 5.90 | 5.90 | 8.54 | 8.54 | 4.40 | 4.40 | 7.90 | 7.90 | 8.45 | 8.45 |  |  |
| CN1CCC[C@H]1COc1cncc(C#CCCCCCCCCO)c1 [Ligand 17, 5-(10-Hydroxy-1-decynyl)-3-(1-methyl-2(S) -pyrrolidinylmethoxy)pyridine] | 5.11 | 5.11 | 8.19 | 8.19 | 5.45 | 5.45 | 7.57 | 7.57 | 4.20 | 4.20 | 7.28 | 7.28 | 7.66 | 7.66 |  |  |
| C#Cc1cncc(OC[C@@H]2CCCN2C)c1 [Ligand 18, 5-(1-Ethynyl)-3-(1-methyl-2(S)-pyrrolidinylmethoxy)pyridine] | 6.36 | 6.36 | 8.99 | 8.99 | 6.33 | 6.33 | 9.12 | 9.13 | 5.51 | 5.51 | 7.97 | 7.97 | 8.44 | 8.44 |  |  |
| CN1CCC[C@H]1COc1cncc(CCCCCCO)c1 [Ligand 19, 5-(6-Hydroxy-1-hexanyl)-3-(1-methyl-2(S) -pyrrolidinylmethoxy)pyridine] | 5.94 | 5.94 | 9.12 | 9.12 | 6.01 | 6.01 | 8.48 | 8.48 | 4.70 | 4.70 | 7.87 | 7.87 | 8.27 | 8.27 |  |  |
| OCCCCC#Cc1cncc(OC[C@@H]2CCN2)c1 [Ligand 26] |  |  |  |  |  |  |  |  |  |  |  |  |  |  | 53,778 | selectivity at α4β2 vs ganglionic α3β4 receptors (α4β2 nAChR subtype; text b206): 54,000 fold; more selective for α4β2 over α3β4 than the corresponding parent compounds 7, 8, and 2 (α4β2 nAChR subtype): 2 orders of magnitude |
| OCCCCC#Cc1cncc(OC[C@@H]2CCCN2)c1 [Ligand 27] |  |  |  |  |  |  |  |  |  |  |  |  |  |  | 14,000 | pKi (α2β4 nAChR subtype; Table 3, mean of 3 independent measurements, read-out: Ki α2β4): 6.08; pKi (α4β2 nAChR subtype; Table 3, mean of 3 independent measurements, read-out: Ki α4β2): 9.18; more selective for α4β2 over α3β4 than the corresponding parent compounds 7, 8, and 2 (α4β2 nAChR subtype): 2 orders of magnitude; pKi (α4β4 nAChR subtype; Table 3, mean of 3 independent measurements, read-out: Ki α4β4): 6.11; pKi (α2β2 nAChR subtype; Table 3, mean of 3 independent measurements, read-out: Ki α2β2): 8.82; pKi (α3β4 nAChR subtype; Table 3, mean of 3 independent measurements, read-out: Ki α3β4): 4.79; pKi (α3β2 nAChR subtype; Table 3, mean of 3 independent measurements, read-out: Ki α3β2): 8.57; pKi ([2]; Table 3, mean of 3 independent measurements, read-out: Ki Forebrain): 8.94 |
| OCCCCC#Cc1ccc(C2CC3CCC2N3)cn1 (stereo not shown) [Ligand 34] |  |  |  |  |  |  |  |  |  |  |  |  |  |  | 2 | pKi (α2β4 nAChR subtype; Ki α2β4, Table 3, mean of 3 independent measurements): 7.17; pKi (α4β2 nAChR subtype; Ki α4β2, Table 3, mean of 3 independent measurements): 7.17; folds lower binding affinities than epibatidine at the nAChRs (α4β2 nAChR subtype; text b208): 200-1000 folds; subtype selectivity among the neuronal nAChRs (α4β2 nAChR subtype; text b208): less than 6 fold; pKi (α4β4 nAChR subtype; Ki α4β4, Table 3, mean of 3 independent measurements): 7.21; pKi (α2β2 nAChR subtype; Ki α2β2, Table 3, mean of 3 independent measurements): 7.77; pKi (α3β4 nAChR subtype; Ki α3β4, Table 3, mean of 3 independent measurements): 7.02; pKi (α3β2 nAChR subtype; Ki α3β2, Table 3, mean of 3 independent measurements): 7.70; pKi ([2]; Ki Forebrain, Table 3, mean of 3 independent measurements): 7.28 |
